Test results taken from patent US20250368638A1, “BICYCLIC INHIBITORS OF NICOTINAMIDE […], COMPOSITIONS AND USES THEREOF” (President and Fellows of Harvard College, priority 2021, published 2025).
“And” between values parts separate entries of the source, which are not always exact repeats. Identical values can stand only once. Like-named read-outs stand apart in the source and are kept apart here.

Tests used:
[1] = molecular target: T1, recombinant human NNMT (Homo sapiens, UniProt P40261); test: in vitro NNMT enzyme inhibition assay (Promega MTase-Glo Methyltransferase Assay); assay type: biochemical; conditions: 40 nM recombinant human NNMT, 8 μM nicotinamide, 6.7 μM SAM, 20 minutes
T1 sequence (P40261 1-264): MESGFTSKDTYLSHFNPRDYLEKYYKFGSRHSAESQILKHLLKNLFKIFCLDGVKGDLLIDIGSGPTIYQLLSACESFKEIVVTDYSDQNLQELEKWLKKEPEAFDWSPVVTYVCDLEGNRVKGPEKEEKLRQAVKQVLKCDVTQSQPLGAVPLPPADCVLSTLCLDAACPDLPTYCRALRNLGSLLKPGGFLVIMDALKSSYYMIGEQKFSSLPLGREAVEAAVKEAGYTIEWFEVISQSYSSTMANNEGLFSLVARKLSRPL
Description: NNMT biochemical activity for was evaluated using the Promega Mtase-Glo Methyltransferase Assay kit. Assays were performed in a white, flat-bottomed 96 well plate. […] Reactions were performed for 20 minutes at room temperature. MTase-Glo reagent and MTase-Glo detection solution were added according to manufacturer's instructions and luminescence signal measured with a SpectraMax i3 plate reader and data analyzed with GraphPad Prism version 9. Scheme 16 depicts a visual summary of the Promega MTase-Glo Methyltransferase assay used to assess biochemical activity of novel inhibitors.

[2] = Permeability assay in Caco-2 cells; conditions: human
Description: Preparation of Caco-2 Cells: 50 μL and 25 mL of cell culture medium were added to each well of the Transwell insert and reservoir, respectively. And then the HTS transwell plates were incubated at 37° C., 5% CO2 for 1 hour before cell seeding. […] Cell culture medium was replaced every other day, beginning no later than 24 hours after initial plating.
Preparation of Stock Solutions: The stock solutions of control and test compounds were prepared in DMSO at the concentration of 10 mM. Digoxin, Prazosin and propranolol were used as control compounds in this assay.
Assay Procedures: The Caco-2 plate was removed from the incubator and washed twice with pre-warmed HBSS (10 mM HEPES, pH 7.4), and then incubated at 37° C. for 30 minutes. The stock solutions of controls and Test compounds were diluted in DMSO to get 1 mM solutions and then diluted with HBSS (10 mM HEPES, pH 7.4) to get 5 μM working solutions. The final concentration of DMSO in the incubation system was 0.5%. To determine the rate of drug transport in the apical to basolateral direction. Add 125 μL of the test compounds to the Transwell insert (apical compartment), and transfer 50 μL sample (DO sample) immediately from the apical compartment to a new 96-well plate. Fill the wells in the receiver plate (basolateral compartment) with 235 μL of HBSS (10 mM HEPES, pH 7.4). To determine the rate of drug transport in the basolateral to apical direction. Add 285 μL of the test compounds to the receiver plate wells (basolateral compartment), and transfer 50 μL sample (DO sample) immediately from the basolateral compartment to a new 96-well plate. Fill the Transwell insert (apical compartment) with 75 μL of HBSS (10 mM HEPES, pH 7.4). Time 0 samples were prepared by transferring 50 μL of 5 μM working solution to wells of the 96-deepwell plate, followed by the addition of 200 μL cold acetonitrile containing appropriate internal standards (100 nM alprazolam, 200 nM labetalol, 200 nM caffeine and 200 nM diclofenac). The plates were incubated at 37° C. for 2 hours. […] Samples were vortexed for 5 minutes and then centrifuged at 3,220 g for 40 minutes. An aliquot of 100 μL of the supernatant was mixed with 100 μL of ultra-pure water to use for LC-MS/MS analysis. To determine the Lucifer Yellow leakage after 2 hour transport period, stock solution of Lucifer yellow was prepared in water and diluted with HBSS (10 mM HEPES, pH 7.4) to reach the final concentration of 100 μM. 100 μL of the Lucifer yellow solution was added to each Transwell insert (apical compartment), followed by filling the wells in the receiver plate (basolateral compartment) with 300 μL of HBSS (10 mM HEPES, pH 7.4). The plates were incubated at 37° C. for 30 minutes. 80 μL samples were removed directly from the apical and basolateral wells (using the basolateral access holes) and transferred to wells of new 96 wells plates.

[3] = Mouse PK studies of 11 (plasma); assay type: in vivo, Female C57B16/N mice; conditions: for T1/2: formulation a (0.2% Tween 80, 10% PEG300); for MRT inf: read-out: MRTInf—obs
From the text: Doses were freshly prepared on the day of dosing. Vehicle compositions of each dose are listed below. […] Adjust pH with 1 N hydrochloric acid to obtain a clear solution or (b) 0.2% Tween 80/20% PEG-300 in water. Adjust pH with 1 N hydrochloric acid to obtain a clear solution
Then the samples were vortexed for 30 s.

[4] = female, C57B16/N, mouse, plasma, iv, 1 mg/kg, 1 mg/kg IV
[5] = female, C57B16/N, mouse, plasma, po, 10 mg/kg, 10 mg/kg PO, formulation a
[6] = female, C57B16/N, mouse, plasma, po, 50 mg/kg, 50 mg/kg PO, formulation a
[7] = female, C57B16/N, mouse, plasma, po, 50 mg/kg, 50 mg/kg PO, formulation b
[8] = female, C57B16/N, mouse, plasma, po, title: single 100 mg/kg dosage, 50 mg/kg^b, formulation b
[9] = female, C57B16/N, mouse, plasma, 1 mg/kg IV

## C[C@@H]1Cc2cc(C(N)=O)cnc2N1 [Compound 11, (2R)-2-methyl-2,3-dihydro-1H-pyrrolo[2,3-b]pyridine-5-carboxamide]
[1]
  IC50: 35 nM and 35 to 42 nM
[2]; Caco-2, pH 7.4
  Papp A→B at 2 h, 5 μM: 27.5 ×10⁻⁶ cm/s
  Papp B→A at 2 h, 5 μM: 21.8 ×10⁻⁶ cm/s
  efflux ratio at 2 h, 5 μM: 0.79
[2]; Caco-2, pH 7.4, Recovery (%) AP-BL
  recovery at 2 h, 5 µM: 102%
[2]; Caco-2, pH 7.4, Recovery (%) BL-AP
  recovery at 2 h, 5 µM: 106%
[3]; 1 mg/kg IV
  AUClast/D: 464 kg·ng·h/mL/mg
  AUC—%Extrap—obs: 0.574%
  Cl_obs: 36.1 mL/min/kg
[3]; 10 mg/kg PO, formulation a
  AUClast/D: 58.2 kg·ng·h/mL/mg
  AUC—%Extrap—obs: 1.90%
  F_last: 12.7%
[3]; 10 mg/kg PO
  T1/2: 1.309 h
[3]; 50 mg/kg PO, formulation a
  AUClast/D: 1020 kg·ng·h/mL/mg
  AUC—%Extrap—obs: 0.258%
  Cmax: 22500 ng/mL
[3]; 50 mg/kg PO
  T1/2: 2.89 h
[3]; 50 mg/kg PO, formulation b
  AUClast/D: 865 kg·ng·h/mL/mg
  AUC—%Extrap—obs: 7.8%
[3]; [4]
  AUC(0-inf): 467 ng·h/mL
  AUC(0-t): 464 ng·h/mL
  MRT inf: 0.427 h
[3]; [5]
  AUC(0-inf): 593 ng·h/mL
  AUC(0-t): 582 ng·h/mL
  MRT inf: 2.21 h
[3]; [6]
  AUC(0-inf): 51300 ng·h/mL
  AUC(0-t): 51100 ng·h/mL
  MRT inf: 2.5 h
[3]; [7]
  AUC(0-inf): 46700 ng·h/mL
  AUC(0-t): 43200 ng·h/mL
  MRT inf: 3.97 h
[3]; [8]
  AUC(0-t): 116000 ng·h/mL
  Tmax: 0.25 h
  half-life: 3.43 h
[3]; female, C57B16/N, mouse, plasma, po, title: single 100 mg/kg dosage, 50 mg/kg^b, formulation b, read-out: Cmax
  Cmax: 43200 ng/mL
[3]; [9]
  C0: 2620 ng/mL
  half-life: 0.148 h
[3]; female, C57B16/N, mouse, plasma, 10 mg/kg PO, formulation a
  Tmax: 0.5 h
[3]; female, C57B16/N, mouse, plasma, 10 mg/kg PO, formulation a, read-out: Cmax
  Cmax: 412 ng/mL
[3]; female, C57B16/N, mouse, plasma, 50 mg/kg PO, formulation a
  Tmax: 0.25 h
[3]; female, C57B16/N, mouse, plasma, 50 mg/kg PO, formulation b (0.2% Tween 80, 20% PEG300)
  half-life: 4.1 h
[3]; female, C57B16/N, mouse, plasma, 50 mg/kg PO, formulation b, read-out: Cmax
  Cmax: 19000 ng/mL
